Measurements published in patent publication US20160228506A1, “Compositions and Formulations for Prevention and Reduction of Tumorigenesis, Cancer Cell Proliferation and Invasion, and Methods of Production and Use Thereof in Cancer Treatment” (PRONUTRIA, INC., priority 2013, published 2016).

Key:
male Zucker fatty rats = experiment: OGTT in Zucker fatty rats: SEQID-00105, alogliptin and combination, blood glucose; format: in vivo, rat; conditions: OGTT glucose 2 g/kg
Experimental: In another experiment, an OGTT was performed in 24, fasted, male Zucker fatty rats with indwelling jugular vein catheters (JVC) to assess the acute effects of nutritive protein dosing on glycemic control as well as insulin and GLP-1 levels. The capacity of SEQID-00105 to improve glucose control was tested by comparing the blood glucose excursion of SEQID-00105 to alogliptin to SEQID-00105+alogliptin to vehicle in the context of an oral glucose tolerance test. All rodents were approximately 10-11 weeks old, weighed average of approximately 430 g and acclimated for 4-5 days prior to testing. Prior to treatment, all rats were fasted overnight for fourteen hours. […] N=6 rats per treatment group. The error bars shown are the standard errors of the mean. Each group was compared post hoc on GraphPad Prism 6, two-way ANOVA, Dunnett's multiple comparisons test first comparing within each group to the fasting glucose concentration, followed by a comparison of each time point to vehicle. […] The integrated area under curve (AUC) was calculated on Microsoft Excel using the Linear-Log Trapezoidal Method and two-way ANOVA and Dunnett's multiple comparisons tests was conducted on GraphPad Prism 6.03.

burn injury = conditions: 0.35 g/kg supplementation, cited from earlier work
[1] = tested on: serotonin (5-HT) synthesis; conditions: oral intake of free Tryptophan; cited from earlier work
healthy subjects = conditions: oral supplementation, vs control; cited from earlier work
Human transglutaminase = target: T1, Human transglutaminase (Homo sapiens, UniProt Q08188); conditions: read-out: Kd for calcium; cited from earlier work
T1 sequence (Q08188 1-693): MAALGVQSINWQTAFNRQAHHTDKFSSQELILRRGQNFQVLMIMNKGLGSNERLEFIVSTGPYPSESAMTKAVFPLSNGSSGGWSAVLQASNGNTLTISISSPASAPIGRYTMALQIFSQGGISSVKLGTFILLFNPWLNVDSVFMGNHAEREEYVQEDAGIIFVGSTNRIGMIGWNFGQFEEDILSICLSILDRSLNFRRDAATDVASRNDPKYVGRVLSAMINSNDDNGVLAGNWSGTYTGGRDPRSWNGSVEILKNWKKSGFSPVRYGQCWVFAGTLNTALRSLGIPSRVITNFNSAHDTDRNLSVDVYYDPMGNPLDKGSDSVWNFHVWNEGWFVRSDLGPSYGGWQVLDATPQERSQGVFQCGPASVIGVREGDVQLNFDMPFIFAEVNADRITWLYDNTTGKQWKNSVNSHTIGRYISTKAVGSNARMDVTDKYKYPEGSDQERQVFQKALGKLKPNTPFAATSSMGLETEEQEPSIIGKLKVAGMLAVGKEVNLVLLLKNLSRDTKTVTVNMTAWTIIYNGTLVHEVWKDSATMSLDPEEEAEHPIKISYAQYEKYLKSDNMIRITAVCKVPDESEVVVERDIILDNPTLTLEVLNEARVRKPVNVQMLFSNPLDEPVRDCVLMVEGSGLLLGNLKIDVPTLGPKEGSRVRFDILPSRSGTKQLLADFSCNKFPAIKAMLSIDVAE

[2] = tested on: ribosomal protein S6 (rps6); experiment: AlphaScreen SureFire rps6 phosphorylation in primary rat skeletal muscle cells; format: cell-based; conditions: primary RSkMC, different Leucine concentrations
Experimental: Primary Rat Skeletal Muscle Cell (RSKMC) culture. RSKMC were isolated using protocol described herein and cryopreserved in liquid nitrogen. The cells were also maintained in RSKMC medium (Cell Applications) in T75 tissue flask in a 37° C., 5% CO2 tissue culture incubator (Model 3110, Thermo Fisher Scientific). The cells were split every three day when they reached ˜90% confluency. RSKMC cells were cultured in RSKMC medium in T75 tissue flask to 100% confluency. The culture medium was aspirated from the culture flask and rinsed once with 10 ml of DPBS, and then 1.5 ml of 0.25% trypsin/EDTA was added to the cells. After the cells were detached from the flask, 10 ml of culture medium were added. The medium was pipetted up and down with a 10 ml pipet to detach the cells from the flask. The cells were then seeded into clear bottom 96-well tissue culture plates at a density of 50,000 cells per well. Following overnight culture in a 37° C., 5% CO2 incubator, the cells were starved over a period of 4 hours with starvation DME/F12 medium without FBS and leucine in a 37° C., 5% CO2 tissue culture incubator, then starved for another hour incubation with Hank's Buffered Salt Solution (HBSS). The cells were stimulated with different concentrations of leucine in starvation medium for 15 and 30 minutes. […]

[3] = Intact half-life during simulated gastric fluid (SGF) digestion; conditions: SGF pH 1.5, pepsin:polypeptide 1:20 w/w, 37° C.; intact protein
Experimental: In this experiment the nutritive polypeptide was exposed to a series of proteases that are active in the stomach (pepsin) and intestine (trypsin and chymotrypsin), and the presence of intact protein was measured over time. Specifically, the nutritive polypeptide was first treated at a concentration of 2 g/L with simulated gastric fluid (SGF) (0.03 M NaCl, titrated with HCl to pH 1.5 with a final pepsin:polypeptide ratio of 1:20 w/w) at 37° C. Time points were sampled from the reaction and quenched by addition of 0.2 M Na2CO3. […] Time points were sampled from the reaction and quenched by addition of Trypsin/Chymotrypsin Inhibitor (Sigma) solution until 240 min.
Time point samples were analyzed for intact protein by chip electrophoresis, polyacrylamide gel electrophoresis, or western blot. For chip electrophoresis (Labchip GX II), samples were analyzed using a HT Low MW Protein Express LabChip® Kit (following the manufacturer's protocol). A protein ladder was loaded every 12 samples for molecular weight determination (kDa) and quantification. For polyacrylamide gel electrophoresis, samples (1 μg) were separated on a NuPAGE® Novex® Bis-Tris Precast gel (Life Technologies) according to the manufacturer's protocol. The gel was stained using SimplyBlue™ SafeStain (Invitrogen) and imaged using a Chemidoc XRS+ (BioRad) or transferred onto nitrocellulose membranes using the iBlot® Dry Blotting System (Life Technologies) and iBlot® Western Detection Kit (Life Technologies) according to the manufacturer's protocol. Proteins were detected by blotting with Anti-His [C-term]-HRP antibody diluted 3:5000 in Blok™-PO Blocking Buffer using the SNAP I.d.® Protein Detection System (Millipore) according to the manufacturer's protocol. Blots were treated with Luminata Classico Western HRP Substrate (Millipore) according to the manufacturer's protocol and imaged using chemiluminescent detection on the Molecular Imager® Gel Doc™ XR+ System (Bio-Rad). Quantification of intact protein was determined by densitometry using ImageLab (BioRad). For all analysis methods the relative concentration of the polypeptide at each time point (if detected) was plotted overtime and fit to an exponential curve to calculate the intact half-life.
Specifically, the t=0 (enzyme-free control) and t=2 min samples from the SGF digest were analyzed for intact protein as described by chip electrophoresis, SDS-PAGE, western blot, and/or LC-MS/MS. Relative quantities of polypeptides at each time point were determined and the percentage of intact protein remaining at t=2 was determined. Intact half-life values determined using this method are reported as greater or less than 2 min to indicate more or less than 50% of the protein remained intact at t=2 min, respectively.

[4] = Thermostability, temperature of aggregation (ProteoStat Thermal Shift); format: physicochemical; conditions: Table E31D; heated 25° C. to 95° C.
Experimental: The thermostability of proteins in a buffer cocktail of Citric Acid and Dibasic Sodium Phosphate over a pH range of 2.8 to 7.1 (preparation described above in Table E31B) was determined using the ProteoStat® Thermal Shift Stability Kit (Enzo Life Sciences) according to the manufacturer's standard protocol. Briefly, protein solutions (˜10 mg/ml) containing 1× ProteoStat TS Detection Reagent were heated from 25° C. to 95° C. at a rate of 0.5° C. per 30 sec using a real-time PCR (rtPCR) thermocycler (BioRad) equipped with a plate reader (SynergyMx, Biotek) while monitoring the fluorescence with a Texas Red filter.

[5] = SGF digest of 168 nutritive polypeptide library, intact protein by LC-MS/MS; format: in vitro ADME; conditions: 168 nutritive polypeptide library SGF digest, LC-MS/MS spectral counts
Experimental: The in vitro intact half-life of multiple polypeptides in a complex mixture was determined using the simulated gastric in vitro digestion described above. Briefly, the 168 nutritive polypeptide library was generated as described herein by cloning, transforming, and expressing a gene library encoding 168 proteins as a single mixture. The recombinantly expressed proteins were purified from host cell proteins by IMAC purification as described herein.
The 168 Protein Library was treated with SGF as described above and the t=0 and t=10 min samples were analyzed for intact protein by LC-MS/MS. To begin, 10 μg of sample was loaded onto a 10% SDS-PAGE gel (Invitrogen) and run approximately 5 cm into the gel. The gel was excised into ten fractions from 100 kD to the dye front and the gel slices were processed by washing with 25 mM ammonium bicarbonate, followed by acetonitrile. Gel fractions were then reduced with 10 mM dithiothreitol at 60° C., followed by alkylation with 50 mM iodoacetamide at room temperature. […] The samples were then analyzed by nano LC/MS/MS using an EasynLC 1000 HPLC system interfaced to a ThermoFisher Q Exactive. […] A full list of detected proteins and their spectral counts (SpC) was generated and reported as a function of each collected gel fraction. […]

Q: Which “blood glucose compared to vehicle” value (male Zucker fatty rats; at 30 minutes following glucose challenge) does the source give for `Cn1c(=O)cc(N2CCC[C@@H](N)C2)n(Cc2ccccc2C#N)c1=O` [Alogliptin] here?
A: significantly lower blood glucose than vehicle

Q: And the “blood glucose compared to vehicle” value (male Zucker fatty rats; at 60 minutes following glucose challenge)?
A: significantly lower than vehicle

Q: And the “glucose AUC compared to vehicle” value (male Zucker fatty rats; between time 0 and 120 minutes, P=0.0051)?
A: significantly less than vehicle

Q: And the “glucose AUC compared to vehicle” value (male Zucker fatty rats; between time 0 and 240 minutes, P=0.0054)?
A: significantly less than vehicle

Q: What does the source list for `NC(=O)CC[C@H](N)C(=O)O` [Glutamine]?
A: reduction in hospital stay (burn injury; 12-day burn injury study): 6 days; decrease in Lactulose/mannitol ratio (burn injury; after 3 days, vs 5.5× decrease): 8.8 ×

Q: With `N[C@@H](Cc1c[nH]c2ccccc12)C(=O)O` [Tryptophan] as the molecule, how does the “increase of 5-HT production” value [1] read?
A: 2 fold

Q: With `N=C(N)NCCC[C@H](N)C(=O)O` [arginine, Arginine] as the molecule, how does the “increase in collagen deposition at wound sites” value (healthy subjects) read?
A: 2.4 ×

Q: Which Kd (Human transglutaminase) does the source give for `[Ca+2]` [calcium, calcium (Ca2+)] here?
A: 300 to 3000 nM

Q: With `CC(C)C[C@H](N)C(=O)O` [leucine] as the molecule, how does the “phosphorylation of rps6” value [2] read?
A: stimulates phorphorylation of rps6 in primary RSkMC in a dose-dependent manner

Q: With “SEQID-00143: nutritive polypeptide (LYLEEVSKNLVEINPLKLEVKAKPWFVYTPMHGVGFDIFSTIVKKTLCLVEGK; listed as Saccharomyces cerevisiae)” as the molecule, how does the “SGF Half-life (t½)” value [3] read?
A: 18 s

Q: With “SEQID-00212: nutritive polypeptide (LEEAKKKLLKDVEVLSQRLEEKALAYDKLEKTKTRLQQELDDLLVDLDHQ; listed as Bos taurus)” as the molecule, how does the “SGF Half-life (t½)” value [3] read?
A: 18 s

Q: For “SEQID-00215: nutritive polypeptide (KKLLKDVEVLSQRLEEKALAYDKLEKTKTRLQQELDDLLVDLDHQRQIVSNLEKK; listed as Bos taurus)”, which “SGF Half-life (t½)” value [3] is on record?
A: 120 s

Q: Which “SGF Half-life (t½)” value [3] does the source give for “SEQID-00218: nutritive polypeptide (GTIENLEEAKKKLLKDVEVLSQRLEEKALAYDKLEKTKTRLQQELDDLLVDLDHQ; listed as Bos taurus)” here?
A: 360 s

Q: With “SEQID-00237: nutritive polypeptide (EEDKVNTLTKAKTKLEQQVDDLEGSLEQEKKLRMDLERAKRKLEGDLKLA; listed as Bos taurus)” as the molecule, how does the “Tagg (pH 7.1)” value [4] read?
A: 45

Q: What about the “SGF Half-life (t½)” value [3] of the same molecule?
A: 36 s

Q: For “SEQID-00615: protein of the 168 nutritive polypeptide library (MAGIIHKIEETLHMGGGRKEEEEKRKGEGQGHGGYKGEGQGHGGYKGEGQG; listed as Vitis vinifera)”, which “% Intact Protein at 10 min” value [5] is on record?
A: 85.7%
